In ChEMBL document CHEMBL1201862, “PubChem BioAssay data set” (2004):
The source made the active and inactive calls.

Columns and labels:
[1] = HEp-2 cell cytotoxicity, dose response, cytotoxicity control for RSV inhibitor project, HTS (AID 2410); format: functional; conditions: human respiratory syncytial virus
[2] = molecular target: T1, Heat shock factor protein 1 (Mus musculus, UniProt P38532); test: HSF1 potentiators in luciferase reporter cells, confirmation, cell-based, NIH3T3, luminescence, dose retest (AID 435004); format: functional;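 further: stress induced by proteasome inhibitor MG132 added 30 min after compound; luciferase reporter driven by HSF1 response element in NIH3T3 cells; actives raise luminescence as potentiators of the MG132 stress response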
T1 sequence (P38532 whole entry): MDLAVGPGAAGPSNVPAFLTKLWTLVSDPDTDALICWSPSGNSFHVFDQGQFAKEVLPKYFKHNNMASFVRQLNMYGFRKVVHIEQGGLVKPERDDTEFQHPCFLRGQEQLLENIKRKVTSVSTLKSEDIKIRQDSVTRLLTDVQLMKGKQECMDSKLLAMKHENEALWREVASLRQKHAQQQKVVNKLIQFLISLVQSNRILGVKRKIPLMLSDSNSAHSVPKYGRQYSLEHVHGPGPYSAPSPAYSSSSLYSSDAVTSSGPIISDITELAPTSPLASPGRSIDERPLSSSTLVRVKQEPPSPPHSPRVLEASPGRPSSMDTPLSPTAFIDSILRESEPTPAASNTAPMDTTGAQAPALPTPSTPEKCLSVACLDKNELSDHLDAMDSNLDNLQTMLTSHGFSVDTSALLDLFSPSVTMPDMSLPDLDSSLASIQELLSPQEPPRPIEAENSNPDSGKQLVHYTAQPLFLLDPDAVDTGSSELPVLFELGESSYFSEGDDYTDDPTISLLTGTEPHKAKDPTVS

[3] = molecular target: T2, Polyadenylate-binding protein 1 (Homo sapiens, UniProt P11940); test: PABP1 MLLE–PAM2 interaction inhibitors, dose response, miRNA deadenylation inhibitor project, biochemical, fluorescence polarization, Cy5-PAM2 peptide, secondary (AID 602260); format: functional; conditions: read-out: IC50_Mean
T2 sequence (P11940 whole entry): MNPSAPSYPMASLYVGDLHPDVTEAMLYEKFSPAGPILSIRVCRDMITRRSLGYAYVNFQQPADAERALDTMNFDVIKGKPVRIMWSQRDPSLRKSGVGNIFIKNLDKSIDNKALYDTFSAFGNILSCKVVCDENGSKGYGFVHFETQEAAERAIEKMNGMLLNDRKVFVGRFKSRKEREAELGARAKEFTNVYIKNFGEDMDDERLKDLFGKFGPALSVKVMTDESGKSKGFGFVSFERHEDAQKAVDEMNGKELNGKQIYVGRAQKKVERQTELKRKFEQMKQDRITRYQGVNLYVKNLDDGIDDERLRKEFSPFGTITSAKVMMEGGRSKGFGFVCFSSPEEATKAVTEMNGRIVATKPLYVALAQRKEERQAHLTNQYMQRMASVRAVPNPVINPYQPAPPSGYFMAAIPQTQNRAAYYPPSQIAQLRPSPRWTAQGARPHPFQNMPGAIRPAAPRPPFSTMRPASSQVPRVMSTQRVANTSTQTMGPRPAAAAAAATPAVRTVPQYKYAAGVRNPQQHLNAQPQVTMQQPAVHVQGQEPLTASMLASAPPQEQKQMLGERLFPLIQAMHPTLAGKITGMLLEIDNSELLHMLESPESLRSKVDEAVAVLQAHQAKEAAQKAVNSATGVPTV

[4] = molecular target: T2, Polyadenylate-binding protein 1; test: PABP1 MLLE–PAM2 binding inhibitor potency, dose response, biochemical, fluorescence polarization, FITC-PAM2 peptide (AID 602259); format: functional; conditions: read-out: IC50_Mean
[5] = molecular target: T3, Corticotropin-releasing factor receptor 2/Corticotropin-releasing factor-binding protein (Homo sapiens, UniProt P24387+Q13324); test: Dose Response confirmation of uHTS hits for small molecule antagonists of the CRF-binding protein and CRF-R2 receptor complex.; format: functional; conditions: read-out: IC50_Mean
T3 sequence (Q13324 whole entry): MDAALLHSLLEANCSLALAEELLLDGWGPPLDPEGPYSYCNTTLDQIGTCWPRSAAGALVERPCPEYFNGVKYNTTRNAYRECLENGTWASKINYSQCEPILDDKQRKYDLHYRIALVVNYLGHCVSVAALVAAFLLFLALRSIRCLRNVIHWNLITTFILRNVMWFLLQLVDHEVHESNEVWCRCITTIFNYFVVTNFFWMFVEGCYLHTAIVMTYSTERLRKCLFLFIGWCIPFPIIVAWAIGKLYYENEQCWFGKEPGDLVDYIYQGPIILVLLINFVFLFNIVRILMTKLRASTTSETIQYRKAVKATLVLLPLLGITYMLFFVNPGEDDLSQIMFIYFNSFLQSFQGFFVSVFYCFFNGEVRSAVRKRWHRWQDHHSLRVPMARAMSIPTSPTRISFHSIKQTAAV
T3 sequence (P24387 whole entry): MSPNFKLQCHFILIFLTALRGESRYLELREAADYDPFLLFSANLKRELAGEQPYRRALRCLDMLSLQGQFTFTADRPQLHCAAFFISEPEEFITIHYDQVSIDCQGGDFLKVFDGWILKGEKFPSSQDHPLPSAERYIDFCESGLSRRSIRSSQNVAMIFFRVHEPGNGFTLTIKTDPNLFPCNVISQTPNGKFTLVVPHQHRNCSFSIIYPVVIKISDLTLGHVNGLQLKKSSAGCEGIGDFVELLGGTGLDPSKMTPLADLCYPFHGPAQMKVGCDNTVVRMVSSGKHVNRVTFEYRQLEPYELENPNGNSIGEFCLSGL

[6] = molecular target: T3, Corticotropin-releasing factor receptor 2/Corticotropin-releasing factor-binding protein; test: activators of CRF receptor 2 with binding protein – uHTS hits, confirmation (AID 602473); format: functional; conditions: read-out: EC50_Mean
Protein skinhead-1 = molecular target: T4, Protein skinhead-1 (Caenorhabditis elegans, UniProt P34707); format: functional
T4 sequence (P34707 whole entry): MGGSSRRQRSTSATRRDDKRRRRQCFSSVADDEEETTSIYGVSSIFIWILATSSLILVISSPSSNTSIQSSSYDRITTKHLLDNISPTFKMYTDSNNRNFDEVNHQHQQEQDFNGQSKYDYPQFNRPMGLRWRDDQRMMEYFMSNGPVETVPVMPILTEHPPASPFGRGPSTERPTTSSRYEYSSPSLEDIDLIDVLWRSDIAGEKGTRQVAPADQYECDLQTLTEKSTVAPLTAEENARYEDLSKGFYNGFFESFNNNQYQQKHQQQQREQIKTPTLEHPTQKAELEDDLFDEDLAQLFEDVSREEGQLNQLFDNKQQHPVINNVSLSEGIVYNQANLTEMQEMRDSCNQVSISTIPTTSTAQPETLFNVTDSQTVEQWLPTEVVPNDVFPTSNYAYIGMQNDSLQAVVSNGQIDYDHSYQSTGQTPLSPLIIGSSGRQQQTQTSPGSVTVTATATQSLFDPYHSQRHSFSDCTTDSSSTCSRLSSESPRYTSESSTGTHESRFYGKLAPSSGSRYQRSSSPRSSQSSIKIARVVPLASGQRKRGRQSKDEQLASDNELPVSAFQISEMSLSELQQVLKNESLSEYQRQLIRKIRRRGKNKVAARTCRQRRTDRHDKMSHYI

[7] = NIH-3T3 fibroblast cytotoxicity, dose response, cytotoxicity control, cell-based, fluorescence, Alamar Blue, secondary assay (AID 2327); format: functional;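 further: NIH-3T3 mouse fibroblasts cultured with fluconazole at 8 µg/mL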
[8] = C. albicans growth with fluconazole, confirmation, fluorescence, retest (AID 2467); format: functional, cell-based
INS1 = test: beta cell apoptosis inhibitors, cytokine rescue, dose response, luminescence, retest (AID 449756); format: functional, cell-based; conditions: Rattus norvegicus, INS1;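 further: cell death triggered by IL-1 beta plus TNF-alpha plus IFN-gamma mixture; protective hits raise ATP signal compared with cytokine alone wells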
Large T antigen = Large T antigen (Simian virus 40, UniProt P03070); format: functional, Betapolyomavirus macacae;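 further: Confirmatory-stage PubChem screen for compounds that inhibit SV40 T antigen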
Sequence of Large T antigen (P03070 whole entry): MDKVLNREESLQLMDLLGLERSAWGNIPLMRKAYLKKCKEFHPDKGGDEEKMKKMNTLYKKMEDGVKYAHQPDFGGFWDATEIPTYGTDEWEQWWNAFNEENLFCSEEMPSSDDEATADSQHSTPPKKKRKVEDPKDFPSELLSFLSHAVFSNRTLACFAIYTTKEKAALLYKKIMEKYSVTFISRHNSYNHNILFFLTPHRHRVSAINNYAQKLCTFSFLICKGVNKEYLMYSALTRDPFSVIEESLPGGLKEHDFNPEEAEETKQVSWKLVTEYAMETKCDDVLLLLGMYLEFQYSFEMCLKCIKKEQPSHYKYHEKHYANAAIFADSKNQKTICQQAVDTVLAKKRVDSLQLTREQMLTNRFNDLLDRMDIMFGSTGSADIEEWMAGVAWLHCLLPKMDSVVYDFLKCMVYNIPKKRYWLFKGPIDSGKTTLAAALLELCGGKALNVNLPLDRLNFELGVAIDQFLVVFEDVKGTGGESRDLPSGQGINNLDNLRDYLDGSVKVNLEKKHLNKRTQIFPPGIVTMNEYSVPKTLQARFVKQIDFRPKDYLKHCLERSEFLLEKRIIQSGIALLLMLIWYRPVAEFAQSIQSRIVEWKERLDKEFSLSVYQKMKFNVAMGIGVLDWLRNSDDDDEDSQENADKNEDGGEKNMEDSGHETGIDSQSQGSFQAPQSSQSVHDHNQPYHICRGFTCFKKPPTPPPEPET

[9] = molecular target: T5, Rac GTPase-activating protein 1 (Homo sapiens, UniProt Q9H0H5); test: MgcRacGAP GTPase-activating activity inhibitors, confirmation, biochemical, ADP Hunter fluorescence, primary and confirmatory (AID 624330); format: functional
T5 sequence (Q9H0H5 whole entry): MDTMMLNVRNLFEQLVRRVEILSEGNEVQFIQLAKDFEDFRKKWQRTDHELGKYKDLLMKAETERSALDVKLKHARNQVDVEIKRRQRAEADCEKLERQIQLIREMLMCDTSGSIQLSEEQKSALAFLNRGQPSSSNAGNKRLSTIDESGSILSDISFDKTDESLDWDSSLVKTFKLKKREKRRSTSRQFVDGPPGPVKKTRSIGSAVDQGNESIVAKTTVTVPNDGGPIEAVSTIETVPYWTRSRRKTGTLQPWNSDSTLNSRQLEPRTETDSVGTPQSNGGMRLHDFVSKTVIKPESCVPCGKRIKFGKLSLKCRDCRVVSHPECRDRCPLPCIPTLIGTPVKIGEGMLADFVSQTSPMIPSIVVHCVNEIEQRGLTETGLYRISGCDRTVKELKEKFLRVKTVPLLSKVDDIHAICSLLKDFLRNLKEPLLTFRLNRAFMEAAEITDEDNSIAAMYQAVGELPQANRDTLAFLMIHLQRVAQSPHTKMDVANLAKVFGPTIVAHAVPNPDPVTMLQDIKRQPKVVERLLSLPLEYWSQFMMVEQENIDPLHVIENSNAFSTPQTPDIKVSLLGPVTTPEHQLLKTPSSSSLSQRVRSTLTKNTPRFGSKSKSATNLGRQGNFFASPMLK

cells [10] = format: functional, cell-based
cells [11] = format: functional, cell-based; remark: listed apart in the source

SMILES: NC(=Nc1ccccc1C(F)(F)F)Nc1nc(O)c2c(n1)CCC2
- CC50 [1]: 46.9 µM (active)
- EC50 [2]: > 260 µM (inactive)

SMILES: Cc1c(NC(=S)NC(=O)c2cc3ccccc3o2)cccc1C(=O)O
- IC50 [3]: > 66 µM (inactive)
- IC50 [4]: > 66 µM (inactive)

SMILES: COc1ccc(/C=C2/SC(=O)N(CCNC(=O)C3COc4ccccc4O3)C2=O)cc1 (stereo not given)
- EC50 [2]: > 260 µM (inactive)

SMILES: CC1CC2(CCCCC2)Nc2ccc3ccccc3c21 (stereo not given)
- EC50 [2]: > 260 µM (inactive)

SMILES: O=c1cc(-c2ccc(F)cc2)oc2ccccc12
- IC50 [5]: > 47.1 µM (inactive)
- EC50 [6]: > 53 µM (inactive)
- IC50 (Protein skinhead-1): 16.2 µM (active)

SMILES: Cc1ccc(-[n+]2c(-c3ccccc3)cn3c2CCC3)cc1
- EC50 [7]: > 150 µM (inconclusive)
- EC50 [8]: > 38 µM (not active)
- AC50 (INS1): 2.83 µM (active)

SMILES: CS(=O)(=O)N1N=C(c2cccs2)CC1c1ccccc1O (stereo not given)
- IC50 (Protein skinhead-1): > 100 µM (inactive)

SMILES: Cc1cs/c(=N\N=C\c2ccc(O)cc2)n1Cc1ccco1
- IC50 (Large T antigen): 25.5 µM (active)
- IC50 [9]: 28.8 µM (active)

SMILES: CN(C)c1ccc(-c2nc3cnccn3c2Nc2ccc3c(c2)OCCO3)cc1
- IC50 (Large T antigen): 12 µM (active)

SMILES: COc1ccc(NC(=S)c2ccc(N(C)C)cc2)cc1
- EC50 (cells [10]): > 350 µM (not active)
- EC50 (cells [11]): 145 µM (active)
- EC50 [2]: > 260 µM (inactive)

SMILES: CCOc1ccc2c(c1)n([O-])c1c([n+]2=O)CCCC1
- IC50 [3]: > 66 µM (inactive)
- IC50 [4]: > 66 µM (inactive)

SMILES: Cc1c(C(=O)Oc2ccc(-c3cnc4ccccc4n3)cc2)cccc1[N+](=O)[O-]
- IC50 (Large T antigen): 58.2 µM (active)

SMILES: CCN(CC)S(=O)(=O)c1ccc(N2CCOCC2)c(NC(=O)c2cc3ccccc3oc2=O)c1
- EC50 [2]: > 260 µM (inactive)

SMILES: CNc1nc(-c2ccccc2)cc(C)c1S(C)(=O)=O
- EC50 [2]: > 260 µM (inactive)

SMILES: Oc1ccc(/N=C/c2cc(Br)c(N3CCOCC3)o2)cc1
- IC50 (Large T antigen): 21.7 µM (active)
- IC50 [9]: 42 µM (active)

SMILES: O=C(COc1ccc2c(c1)CCC2)N1CCN(c2cccc(C(F)(F)F)c2)CC1
- EC50 [7]: > 160 µM (inactive)
- EC50 [8]: > 38 µM (not active)

SMILES: Cn1nnc(NC(=S)NC(=O)c2ccc3ccccc3c2)n1
- IC50 [3]: > 66 µM (inactive)
- IC50 [4]: > 66 µM (inactive)

SMILES: Cc1ccc(CNC(=O)CSc2nccn(-c3ccc(C)c(F)c3)c2=O)cc1
- IC50 [3]: > 66 µM (inactive)
- IC50 [4]: > 66 µM (inactive)

SMILES: CCN1C(=O)/C(=C2\Sc3ccccc3N2CC)OC1=S
- IC50 [3]: > 66 µM (inactive)
- IC50 [4]: > 66 µM (inactive)

SMILES: O=C(C1=C(O)C(=O)N(Cc2cccnc2)C1c1cccc(O)c1)c1ccc2c(c1)OCCO2 (stereo not given)
- EC50 [2]: > 260 µM (inactive)

SMILES: O=C(c1ccc(S(=O)(=O)NCc2ccco2)cc1)N1CCN(c2ccc(F)cc2)CC1
- IC50 (Protein skinhead-1): > 100 µM (inactive)

SMILES: O=C(Nc1ccc(N=Nc2ccccc2)c(NC(=O)C2CCCO2)c1)C1CCCO1 (stereo not given)
- EC50 [7]: > 160 µM (inactive)
- EC50 [8]: > 38 µM (not active)

SMILES: O=S1(=O)N=C(Nc2ccc(N3CCOCC3)cc2)c2ccccc21
- EC50 [7]: > 160 µM (inactive)
- EC50 [8]: > 38 µM (not active)

SMILES: COc1ccc(Cl)cc1NC(=O)CN(C(=O)c1ccco1)C1CCCCC1
- IC50 [3]: > 66 µM (inactive)
- IC50 [4]: > 66 µM (inactive)

SMILES: CCNC(=O)c1sc(=S)n(-c2ccc(C)cc2)c1N
- IC50 [3]: > 66 µM (inactive)
- IC50 [4]: > 66 µM (inactive)

SMILES: COc1cc(C2Nc3ccc4ncccc4c3C3=C2C(=O)CCC3)cc(OC)c1OC (stereo not given)
- EC50 [2]: 29.3 µM (active)

SMILES: O=C(C[n+]1ccccc1)NN=Cc1ccc(O)cc1
- IC50 (Large T antigen): 11.3 µM (active)
- IC50 [9]: 75 µM (active)

SMILES: CC(=O)O[C@H]1[C@@H](O)[C@H](O)[C@H](Oc2c(O)c(C)c3c4c2[C@@H](C)CC[C@@H]4[C@@H](C)C[C@@H]3C=C(C)C)O[C@H]1C
- IC50 (Protein skinhead-1): > 100 µM (inactive)

SMILES: S=C1N=C(c2ccccc2)NCN1c1ccc(Br)cc1
- EC50 [2]: 236 µM (active)

SMILES: C#CCNC(=O)C1=C[C@@H](c2cn(C(C)=O)c3ccccc23)C[C@@H](OCCCCO)O1
- IC50 (Protein skinhead-1): > 100 µM (inactive)

SMILES: O=C(Nc1ccc2oc(-c3cccnc3)nc2c1)c1ccc(Br)o1
- IC50 (Protein skinhead-1): > 100 µM (inactive)

SMILES: CC1=NN(c2ccccc2)C(=O)/C1=C\C=C1\N(C)c2ccccc2C1(C)C
- IC50 (Protein skinhead-1): 42.5 µM (active)

SMILES: COC(=O)/C=C1\SC(NC(=O)c2ccc(C)cc2)=NC1=O
- IC50 [3]: > 66 µM (inactive)
- IC50 [4]: > 66 µM (inactive)

SMILES: COc1ccc(S(=O)(=O)Nc2ccc(S(=O)(=O)Nc3ccc(F)cc3)cc2)cc1C
- IC50 (Protein skinhead-1): > 100 µM (inactive)

SMILES: Cc1oc(-c2ccoc2)nc1CN(CC1CCC(=O)N1)C(C)C (stereo not given)
- EC50 [2]: > 260 µM (inactive)

SMILES: O=Cc1ccc(OC(=O)c2cc(Cl)nc3ccccc23)cc1
- IC50 [3]: > 66 µM (inactive)
- IC50 [4]: > 66 µM (inactive)

SMILES: COc1ccc2ccc(O)c(CN3CC=C(c4ccccc4)CC3)c2c1
- EC50 [2]: 34.6 µM (active)

SMILES: C=CCNc1nc(-c2ccc([N+](=O)[O-])cc2)cs1
- IC50 (Protein skinhead-1): 23.7 µM (active)
